Where a name gives a salt, the structure may show the parent alone.
The molecules below were run against human α7 nAChRs transiently expressed in Xenopus laevis oocytes (Homo sapiens (Human), UniProt P36544) (assay: Oocyte electrophysiology screen (TEVC)). Conditions: 0.01 mM test compound, peak current relative to 0.2 mM ACh.
Assay type: cell-based
Method: Oocyte Electrophysiology Screen (% ACh @ 10 μM Oocyte)
The Oocyte Electrophysiology Screen studies were performed under contract by HiQScreen Geneva, Switzerland. All experiments were carried out at human α7 nAChRs transiently expressed in Xenopus laevis oocytes using the method of cDNA expression. Currents evoked by acetylcholine or other agonist ligands were recorded using the standard two-electrode voltage-clamp configuration (TEVC). X. laevis oocytes were prepared and injected using standard procedures. Briefly, ovaries were harvested from X. laevis females that were deeply anesthetized and pithed following the animal rights rule from the Geneva canton. A small piece of ovary was isolated for immediate preparation while the remaining part was placed at 4° C. in a sterile Barth solution containing in mM: NaCl 88, KCl 1, NaHCO3 2.4, HEPES 10, MgSO4.7H2O 0.82, Ca(NO3)2.4H2O 0.33, CaCl2.6H2O 0.41, at pH 7.4, and supplemented with 20 μg/mL of kanamycin, 100 unit/mL penicillin and 100 μg/mL streptomycin. […] Cells were held at −80 mV. Data were filtered at 10 Hz, captured at 100 Hz and analyzed using proprietary data acquisition and analysis software running under Matlab (Mathworks Inc.).
Experimental Protocol and Analysis
After establishing a baseline transmembrane current, acetylcholine (ACh) was applied for 5 seconds at a concentration of 0.2 mM to establish a control ACh-evoked current response. Following a wash period of 90 s in OR2 medium (free of ACh), cells were then exposed for 30 s to the test compound applied at 0.01 mM. The same reference ACh test pulse was immediately given at the end of the compound exposure and again after 90 s of recovery in OR2 Medium (free of ACh or test compound). All data were determined in triplicate. The response evoked by the test compound was expressed as a percentage of that evoked by ACh: Response (% ACh)=100×(Itest/IACh) where Itest is the peak inward current measured during exposure to 0.01 mM of test compound and IACh is the peak inward current measured in the presence of ACh.

human α7 nAChRs transiently expressed in Xenopus laevis oocytes, sequence (P36544 23-502 limits assumed): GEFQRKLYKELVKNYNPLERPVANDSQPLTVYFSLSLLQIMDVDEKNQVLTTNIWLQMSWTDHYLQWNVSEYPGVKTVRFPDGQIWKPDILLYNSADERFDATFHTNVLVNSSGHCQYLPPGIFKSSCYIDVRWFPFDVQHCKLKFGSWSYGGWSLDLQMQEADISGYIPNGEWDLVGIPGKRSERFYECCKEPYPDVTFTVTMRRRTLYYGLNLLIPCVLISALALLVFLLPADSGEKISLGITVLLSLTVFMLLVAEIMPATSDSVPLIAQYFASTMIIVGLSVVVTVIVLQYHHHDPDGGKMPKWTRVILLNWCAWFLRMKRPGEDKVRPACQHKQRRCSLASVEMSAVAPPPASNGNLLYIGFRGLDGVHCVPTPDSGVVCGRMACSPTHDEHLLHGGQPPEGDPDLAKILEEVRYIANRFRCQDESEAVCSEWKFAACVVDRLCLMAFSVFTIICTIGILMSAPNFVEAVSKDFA

Molecule | % ACh @ 10 μM Oocyte [% ACh]
Cc1nc2ccc(C(=O)N[C@@H]3C4CCN(CC4)C3(C)C)cc2o1 [(R)-33, (R)—N-(2,2-dimethylquinuclidin-3-yl)-2-methylbenzo[d]oxazole-6-carboxamide] | 6
Cn1cnc2cc(C(=O)N[C@@H]3C4CCN(CC4)C3(C)C)ccc21 [(R)-42, (R)—N-(2,2-dimethylquinuclidin-3-yl)-1-methyl-1H-benzo[d]imidazole-5-carboxamide hydrochloride] | 0
(R)-N-(2,2-dimethylquinuclidin-3-yl)-6-(trifluoromethoxy)benzo[b]thiophene-2-carboxamide hydrochloride [(R)-209] | 1
CS(=O)(=O)c1ccc2cc(C(=O)N[C@@H]3C4CCN(CC4)C34CC4)sc2c1 [(R)-103, (R)-6-(methylsulfonyl)-N-(1′-azaspiro[cyclopropane-1,2′-bicyclo[2.2.2]octan]-3′-yl)benzo[b]thiophene-2-carboxamide hydrochloride] | 2
Cl.O=C(N[C@@H]1C2CCN(CC2)C12CC2)c1cc2ccc(OC(F)(F)F)cc2s1 [(R)-248, (R)-N-(1′-azaspiro[cyclopropane-1,2′-bicyclo[2.2.2]octan]-3′-yl)-6-(trifluoromethoxy)benzo[b]thiophene-2-carboxamide hydrochloride] | 1
CC1(C)[C@@H](NC(=O)c2cc3cc(C(F)(F)F)ccc3s2)C2CCN1CC2 [(S)-17, (S)—N-(2,2-dimethylquinuclidin-3-yl)-5-(trifluoromethyl)benzo[b]thiophene-2-carboxamide hydrochloride] | 1
CC1(C)[C@H](NC(=O)c2ccc3c(c2)OCCO3)C2CCN1CC2.Cl [(R)-215, (R)-N-(2,2-dimethylquinuclidin-3-yl)-2,3-dihydrobenzo[b][1,4]dioxine-6-carboxamide hydrochloride] | 86
O=C(N[C@@H]1C2CCN(CC2)C12CC2)c1nc2ccccc2s1 [(R)-82, (R)—N-(1′-azaspiro[cyclopropane-1,2′-bicyclo[2.2.2]octan]-3′-yl)benzo[d]thiazole-2-carboxamide hydrochloride] | 239
Cc1csc2cc(C(=O)N[C@@H]3C4CCN(CC4)C3(C)C)ccc12 [(R)-25, (R)—N-(2,2-dimethylquinuclidin-3-yl)-3-methylbenzo[b]thiophene-6-carboxamide hydrochloride] | 7
CC1(C)[C@@H](NC(=O)c2cc3cc(C4CC4)ccc3s2)C2CCN1CC2 [(S)-19, (S)-5-cyclopropyl-N-(2,2-dimethylquinuclidin-3-yl)benzo[b]thiophene-2-carboxamide hydrochloride] | 3
CC1(C)[C@@H](NC(=O)c2cc3cc(Cl)c(Cl)cc3s2)C2CCN1CC2 [(S)-14, (S)-5,6-dichloro-N-(2,2-dimethylquinuclidin-3-yl)benzo[b]thiophene-2-carboxamide hydrochloride] | 3
O=C(N[C@@H]1C2CCN(CC2)C12CC2)c1ccc2occc2n1 [(R)-90, (R)—N-(1′-azaspiro[cyclopropane-1,2′-bicyclo[2.2.2]octan]-3′-yl)furo[3,2-b]pyridine-5-carboxamide hydrochloride] | 3
O=C(NC1C2CCN(CC2)C12CC2)c1cc2cccc(Cl)c2s1 (single isomer, unassigned; enantiomer2) [56b, 7-chloro-N-(1′-azaspiro[cyclopropane-1,2′-bicyclo[2.2.2]octan]-3′-yl)benzo[b]thiophene-2-carboxamide-enantiomer2] | 0
CC1(C)[C@H](NC(=O)c2cc3ccc(F)c(C(F)(F)F)c3s2)C2CCN1CC2.Cl [(R)-211, (R)-N-(2,2-dimethylquinuclidin-3-yl)-6-fluoro-7-(trifluoromethyl)benzo[b]thiophene-2-carboxamide hydrochloride] | 100
CC1(C)[C@H](NC(=O)c2ccc3oc(Cl)cc3c2)C2CCN1CC2 [(R)-39, (R)-2-chloro-N-(2,2-dimethylquinuclidin-3-yl)benzofuran-5-carboxamide hydrochloride] | 697
O=C(NC1C2CCN(CC2)C12CC2)c1cc2cc(Cl)c(Cl)cc2s1 (single isomer, unassigned; enantiomer1) [67a, 5,6-dichloro-N-(1′-azaspiro[cyclopropane-1,2′-bicyclo[2.2.2]octan]-3′-yl)benzo[b]thiophene-2-carboxamide-enantiomer1 hydrochloride] | 1
CC1(C)[C@H](NC(=O)c2cc3ccc(N4CCOCC4)cc3s2)C2CCN1CC2 [(R)-44, (R)—N-(2,2-dimethylquinuclidin-3-yl)-6-morpholinobenzo[b]thiophene-2-carboxamide hydrochloride] | 1
CC1(C)[C@@H](NC(=O)c2cc3ccc(C(F)(F)F)cc3s2)C2CCN1CC2 [(S)-10, (S)—N-(2,2-dimethylquinuclidin-3-yl)-6-(trifluoromethyl)benzo[b]thiophene-2-carboxamide hydrochloride] | 1

Same assay, conditions: 0.01 mM test compound, peak current relative to 0.2 mM ACh; hydrochloride

Molecule | % ACh @ 10 μM Oocyte [% ACh]
Cc1ccc2sc(C(=O)NC3C4CCN(CC4)C34CC4)cc2c1 (single isomer, unassigned; enantiomer1) [69a, 5-methyl-N-(1′-azaspiro[cyclopropane-1,2′-bicyclo[2.2.2]octan]-3′-yl)benzo[b]thiophene-2-carboxamide-enantiomer1 hydrochloride] | 162
O=C(NC1C2CCN(CC2)C12CC2)c1cc2cc(C3CC3)ccc2s1 (single isomer, unassigned; enantiomer1) [72a, 5-cyclopropyl-N-(1′-azaspiro[cyclopropane-1,2′-bicyclo[2.2.2]octan]-3′-yl)benzo[b]thiophene-2-carboxamide-enantiomer1 hydrochloride] | 188
COc1ccc2sc(C(=O)NC3C4CCN(CC4)C34CC4)cc2c1 (single isomer, unassigned; enantiomer2) [74b, 5-methoxy-N-(1′-azaspiro[cyclopropane-1,2′-bicyclo[2.2.2]octan]-3′-yl)benzo[b]thiophene-2-carboxamide-enantiomer2 hydrochloride] | 4
O=C(NC1C2CCN(CC2)C12CC2)c1cc2cc(Cl)ccc2s1 (single isomer, unassigned; enantiomer1) [66b, 5-chloro-N-(1′-azaspiro[cyclopropane-1,2′-bicyclo[2.2.2]octan]-3′-yl)benzo[b]thiophene-2-carboxamide-enantiomer1 hydrochloride] | 29
O=C(NC1C2CCN(CC2)C12CC2)c1cc2cc(Cl)ccc2s1 (single isomer, unassigned; enantiomer1) [66a, 5-chloro-N-(1′-azaspiro[cyclopropane-1,2′-bicyclo[2.2.2]octan]-3′-yl)benzo[b]thiophene-2-carboxamide-enantiomer1 hydrochloride] | 2
COc1ccc2cc(C(=O)NC3C4CCN(CC4)C34CC4)sc2c1 (single isomer, unassigned; enantiomer1) [73a, 6-methoxy-N-(1′-azaspiro[cyclopropane-1,2′-bicyclo[2.2.2]octan]-3′-yl)benzo[b]thiophene-2-carboxamide-enantiomer1 hydrochloride] | 1036
CC1(C)C(NC(=O)c2cc3ccccc3s2)C2CCN1CC2 (single isomer, unassigned; enantiomer1) [1a, N-(2,2-dimethylquinuclidin-3-yl)benzo[b]thiophene-2-carboxamide-enantiomer1 hydrochloride] | 1470
Nc1ccc2cc(C(=O)NC3C4CCN(CC4)C34CC4)sc2c1 (single isomer, unassigned; enantiomer1) [62a, 6-amino-N-(1′-azaspiro[cyclopropane-1,2′-bicyclo[2.2.2]octan]-3′-yl)benzo[b]thiophene-2-carboxamide-enantiomer1 hydrochloride] | 35
O=C(NC1C2CCN(CC2)C12CC2)c1cc2cc(C(F)(F)F)ccc2s1 (single isomer, unassigned; enantiomer2) [70b, N-(1′-azaspiro[cyclopropane-1,2′-bicyclo[2.2.2]octan]-3′-yl)-5-(trifluoromethyl)benzo[b]thiophene-2-carboxamide-enantiomer2 hydrochloride] | 1

— patent publication US10183938B2, “Geminal substituted quinuclidine amide compounds as agonists of α-7 nicotonic acetylcholine receptors” (AXOVANT SCIENCES GMBH, priority 2014, dated 2019)
